Measurements reported in patent publication US12419873B2, “Use of JAK inhibitors in preparation of drugs for treating JAK kinase-related diseases” (ZHUHAI UNITED LABORATORIES CO., LTD., priority 2020, dated 2025).
Entries after “also recorded” stand apart in the source; their conditions may differ. Each block holds one molecule with its values, some of them ahead of it.

What was measured:
[1] = target: TYK2 (Homo sapiens (Human), UniProt P29597); test: In vitro activity test of TYK2 kinase; assay type: biochemical
Experimental: (§1) Recombinant human JAK1, JAK2, JAK3, TyK2 protease, main instruments and reagents were provided by Eurofins in the UK
(§2) All compounds were prepared into a 100% DMSO solution and reached 50 times the final determined concentration. The test compound was diluted by 3 times the concentration gradient, and the final concentration was 10 μM to 0.001 μM, 9 concentrations in total, and the content of DMSO in the detection reaction was 2%. The working stock solution of the compound was added to a determination hole as the first component of the reaction, and then the remaining components were added according to the detailed scheme determination below.
(§3) Mg/ATP mixture was added to start the reaction. After incubation at room temperature for 40 minutes, 0.5% phosphoric acid was added to stop the reaction.

[2] = target: JAK3 (Homo sapiens (Human), UniProt P52333); test: In vitro activity test of JAK3 kinase; assay type: biochemical
Experimental: as §1, §2, §3

[3] = target: JAK1 (Homo sapiens (Human), UniProt P23458); test: In vitro activity test of JAK1 kinase; assay type: biochemical
Experimental: as §1, §2, §3

[4] = target: JAK2 (Homo sapiens (Human), UniProt O60674); test: In vitro activity test of JAK2 kinase; conditions: read-out: JAK2 (IC50)
[5] = test system: DNCB induced allergic dermatitis in mice; test: In vivo pharmacodynamic study on DNCB induced allergic dermatitis (AD) in mice
[6] = test system: DSS induced ulcerative colitis and Crohn's disease in mice; test: In vivo pharmacodynamic study on DSS induced inflammatory bowel disease (IBD) in mice; parameters: species or system mice (C57BL/6); Colon length: unit not given here; conditions: 15 mg/kg p.o. qd, Mean±SEM
Description: Inflammatory bowl disease (IBD) is a kind of recurrent disease. It is difficult to cure, has a high recurrence rate, and has a poor prognosis, it has a certain correlation with the incidence of colon cancer. The development of drugs for the treatment of IBD will help alleviate the symptoms of ulcerative colitis and Crohn's disease and improve the quality of life of patients. The mouse inflammation model induced by dextran sulfate sodium (DSS) is similar to the human disease ulcerative colitis and Crohn's disease. It is a common classical model for preclinical evaluation of drug efficacy.
Preparation method of DSS: 20 g DSS was weighed, 1000 mL drinking water was added to form 2% DSS solution, and stored in a 4° C. refrigerator. It is effective within one month.
Preparation method of a solvent: Vehicle solution is an aqueous solution containing 0.5% methylcellulose and 0.5% Tween 80. Firstly, 5 g of methylcellulose was dissolved in 990 mL of pure water, then 5 g of Tween 80 was added in small amount for many times, mixed evenly and stored at room temperature.
Preparation method of compounds: the compound was weighed, an aqueous solution with a mass ratio of 0.5% methylcellulose+0.5% Tween 80 was added, and it was processed by ultrasonic until it was dissolved.
The adaptation period of the animals was 3 days. After adaptation, the animals were weighed every day. The blank group was given drinking water, and the other groups were given drinking water containing 2% DSS. The water volume was 5 mL/animal/day. The animals in the test drug group were administrated by gavage once a day. The blank group and […] group were given the same volume of vehicle, with the administration volume of 10 mL/kg. Every other day, the fecal viscosity was evaluated, feces were collected for fecal occult blood detection, and the disease activity index (DAI) score was calculated. DSS consumption was detected every day. Fresh DSS solution was replaced every two days. The dosing cycle was continuous intragastric administration for 7 days, followed by 4 days of drug withdrawal, followed by 7 days of continuous intragastric administration. Normal drinking water was changed when intragastric administration was stopped.
DAI is the sum of the scores of body weight, fecal viscosity and fecal occult blood. Among them, the semi quantitative detection method of piramine cave was adopted for detecting fecal occult blood, including adding piramine cave to the sample first, then adding hydrogen peroxide and ethanol solution, and reading and scoring the color within 2 min. Immediately generating purple blue is marked as 4+, generating the purple blue within 10 s is marked as 3+, generating purple red within 1 min is marked as 2+, and gradually generating the purple red within 1-2 min is marked as 1+, and generating no color reaction of purple orchid or purple red within the reading time is recorded as negative (−). After the experiment, the colon and spleen were taken, and the length of colon and the weight of spleen were measured. The spleen index was the ratio of spleen weight to body weight.

[7] = after the experiment, 30 mg/kg p.o. qd, 28 days, Mean±SEM
[8] = day 3, 30 mg/kg p.o. qd from day 4, Mean±SEM
[9] = day 9, 30 mg/kg p.o. qd, Mean±SEM
[10] = day 15, 30 mg/kg p.o. qd, Mean±SEM
[11] = day 21, 30 mg/kg p.o. qd, Mean±SEM
[12] = day 21 of administration, 30 mg/kg p.o.
[13] = day 27, 30 mg/kg p.o. qd, Mean±SEM

JAK3, sequence (P52333 whole entry): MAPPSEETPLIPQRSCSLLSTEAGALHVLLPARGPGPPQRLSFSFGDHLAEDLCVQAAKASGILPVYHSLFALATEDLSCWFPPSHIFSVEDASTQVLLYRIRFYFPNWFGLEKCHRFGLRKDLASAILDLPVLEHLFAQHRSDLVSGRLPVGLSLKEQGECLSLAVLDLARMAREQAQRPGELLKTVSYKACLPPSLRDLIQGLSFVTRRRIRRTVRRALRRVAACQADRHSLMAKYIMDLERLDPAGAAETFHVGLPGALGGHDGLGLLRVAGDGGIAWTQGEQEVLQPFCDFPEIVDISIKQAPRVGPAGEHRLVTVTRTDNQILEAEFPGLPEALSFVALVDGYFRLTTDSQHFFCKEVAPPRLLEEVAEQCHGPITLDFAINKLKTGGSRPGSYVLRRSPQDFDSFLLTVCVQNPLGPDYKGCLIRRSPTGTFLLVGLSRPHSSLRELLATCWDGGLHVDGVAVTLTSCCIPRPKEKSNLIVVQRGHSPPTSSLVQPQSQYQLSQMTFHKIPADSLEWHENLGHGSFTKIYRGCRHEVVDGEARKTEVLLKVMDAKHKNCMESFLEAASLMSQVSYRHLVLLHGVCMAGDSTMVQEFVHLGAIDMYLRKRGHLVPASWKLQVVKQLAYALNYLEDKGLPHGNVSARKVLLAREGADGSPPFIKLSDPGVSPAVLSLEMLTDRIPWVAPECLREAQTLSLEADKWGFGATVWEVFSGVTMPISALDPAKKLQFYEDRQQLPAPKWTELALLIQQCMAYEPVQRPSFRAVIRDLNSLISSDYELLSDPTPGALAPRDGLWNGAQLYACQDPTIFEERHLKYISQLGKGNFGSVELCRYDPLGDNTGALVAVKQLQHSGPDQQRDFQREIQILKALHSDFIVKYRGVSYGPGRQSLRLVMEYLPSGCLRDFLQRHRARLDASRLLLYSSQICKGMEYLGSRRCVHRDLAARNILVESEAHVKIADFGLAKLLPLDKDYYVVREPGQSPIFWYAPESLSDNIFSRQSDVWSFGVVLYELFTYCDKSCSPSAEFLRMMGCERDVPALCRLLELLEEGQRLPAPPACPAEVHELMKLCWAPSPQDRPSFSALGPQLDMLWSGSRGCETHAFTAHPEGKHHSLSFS
TYK2, sequence (P29597 whole entry): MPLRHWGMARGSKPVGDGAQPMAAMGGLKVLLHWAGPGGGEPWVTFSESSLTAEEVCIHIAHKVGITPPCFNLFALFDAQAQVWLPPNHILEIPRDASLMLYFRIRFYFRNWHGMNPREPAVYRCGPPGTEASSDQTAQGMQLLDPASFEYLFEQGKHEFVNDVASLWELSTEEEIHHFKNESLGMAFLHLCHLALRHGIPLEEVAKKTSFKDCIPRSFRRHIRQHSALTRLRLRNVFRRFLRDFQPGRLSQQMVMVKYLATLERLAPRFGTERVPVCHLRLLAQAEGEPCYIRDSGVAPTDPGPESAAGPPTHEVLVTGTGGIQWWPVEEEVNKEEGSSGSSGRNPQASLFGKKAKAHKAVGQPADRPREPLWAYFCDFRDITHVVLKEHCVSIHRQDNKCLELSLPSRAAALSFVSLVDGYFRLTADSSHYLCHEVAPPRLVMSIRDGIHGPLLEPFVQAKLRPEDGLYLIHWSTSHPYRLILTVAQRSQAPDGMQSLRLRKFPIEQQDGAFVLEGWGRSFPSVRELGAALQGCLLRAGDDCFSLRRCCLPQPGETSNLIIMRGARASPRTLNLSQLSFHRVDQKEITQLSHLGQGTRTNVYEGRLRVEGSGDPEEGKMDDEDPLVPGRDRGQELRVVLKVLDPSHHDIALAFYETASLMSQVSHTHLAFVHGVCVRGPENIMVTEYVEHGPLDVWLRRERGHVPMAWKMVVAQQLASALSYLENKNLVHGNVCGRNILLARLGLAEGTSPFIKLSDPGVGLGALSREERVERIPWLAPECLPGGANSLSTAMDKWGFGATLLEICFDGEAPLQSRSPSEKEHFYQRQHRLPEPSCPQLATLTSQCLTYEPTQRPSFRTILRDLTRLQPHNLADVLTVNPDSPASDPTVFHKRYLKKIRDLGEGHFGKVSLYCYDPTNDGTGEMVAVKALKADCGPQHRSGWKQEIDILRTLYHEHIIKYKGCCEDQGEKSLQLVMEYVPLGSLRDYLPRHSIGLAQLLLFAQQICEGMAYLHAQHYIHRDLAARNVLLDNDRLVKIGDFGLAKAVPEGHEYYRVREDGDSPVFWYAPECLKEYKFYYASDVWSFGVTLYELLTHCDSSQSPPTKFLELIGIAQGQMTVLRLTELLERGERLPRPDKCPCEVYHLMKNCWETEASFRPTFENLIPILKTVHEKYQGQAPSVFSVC
JAK1, sequence (P23458 whole entry): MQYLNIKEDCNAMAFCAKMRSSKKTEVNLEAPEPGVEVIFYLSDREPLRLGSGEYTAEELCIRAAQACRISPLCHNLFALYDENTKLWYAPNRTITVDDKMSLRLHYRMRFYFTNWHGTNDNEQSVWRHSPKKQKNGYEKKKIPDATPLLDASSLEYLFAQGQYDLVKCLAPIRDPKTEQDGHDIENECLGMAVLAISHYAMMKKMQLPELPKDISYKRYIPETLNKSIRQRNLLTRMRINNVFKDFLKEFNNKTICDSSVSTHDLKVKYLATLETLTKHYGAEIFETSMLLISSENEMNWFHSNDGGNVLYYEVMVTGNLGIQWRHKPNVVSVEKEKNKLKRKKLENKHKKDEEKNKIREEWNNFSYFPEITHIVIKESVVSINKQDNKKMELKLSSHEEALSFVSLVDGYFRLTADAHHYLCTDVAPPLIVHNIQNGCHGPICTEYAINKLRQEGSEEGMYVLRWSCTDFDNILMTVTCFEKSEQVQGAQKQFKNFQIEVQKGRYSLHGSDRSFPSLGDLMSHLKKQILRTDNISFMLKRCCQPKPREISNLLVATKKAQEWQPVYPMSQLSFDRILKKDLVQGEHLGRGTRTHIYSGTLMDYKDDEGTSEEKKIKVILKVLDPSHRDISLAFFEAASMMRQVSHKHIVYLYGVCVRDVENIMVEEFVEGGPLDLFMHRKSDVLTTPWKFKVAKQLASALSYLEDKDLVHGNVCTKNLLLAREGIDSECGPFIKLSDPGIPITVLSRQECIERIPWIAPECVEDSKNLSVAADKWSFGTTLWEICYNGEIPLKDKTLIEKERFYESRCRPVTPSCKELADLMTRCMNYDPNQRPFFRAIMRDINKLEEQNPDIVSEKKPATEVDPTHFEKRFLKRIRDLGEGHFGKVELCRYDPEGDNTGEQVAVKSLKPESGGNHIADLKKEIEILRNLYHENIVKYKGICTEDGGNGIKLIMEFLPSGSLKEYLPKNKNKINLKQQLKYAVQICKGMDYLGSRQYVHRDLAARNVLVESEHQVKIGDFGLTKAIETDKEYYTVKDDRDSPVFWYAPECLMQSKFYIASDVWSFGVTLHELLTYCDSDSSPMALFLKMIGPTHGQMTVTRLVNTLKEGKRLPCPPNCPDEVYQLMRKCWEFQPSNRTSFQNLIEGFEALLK
JAK2, sequence (O60674 whole entry): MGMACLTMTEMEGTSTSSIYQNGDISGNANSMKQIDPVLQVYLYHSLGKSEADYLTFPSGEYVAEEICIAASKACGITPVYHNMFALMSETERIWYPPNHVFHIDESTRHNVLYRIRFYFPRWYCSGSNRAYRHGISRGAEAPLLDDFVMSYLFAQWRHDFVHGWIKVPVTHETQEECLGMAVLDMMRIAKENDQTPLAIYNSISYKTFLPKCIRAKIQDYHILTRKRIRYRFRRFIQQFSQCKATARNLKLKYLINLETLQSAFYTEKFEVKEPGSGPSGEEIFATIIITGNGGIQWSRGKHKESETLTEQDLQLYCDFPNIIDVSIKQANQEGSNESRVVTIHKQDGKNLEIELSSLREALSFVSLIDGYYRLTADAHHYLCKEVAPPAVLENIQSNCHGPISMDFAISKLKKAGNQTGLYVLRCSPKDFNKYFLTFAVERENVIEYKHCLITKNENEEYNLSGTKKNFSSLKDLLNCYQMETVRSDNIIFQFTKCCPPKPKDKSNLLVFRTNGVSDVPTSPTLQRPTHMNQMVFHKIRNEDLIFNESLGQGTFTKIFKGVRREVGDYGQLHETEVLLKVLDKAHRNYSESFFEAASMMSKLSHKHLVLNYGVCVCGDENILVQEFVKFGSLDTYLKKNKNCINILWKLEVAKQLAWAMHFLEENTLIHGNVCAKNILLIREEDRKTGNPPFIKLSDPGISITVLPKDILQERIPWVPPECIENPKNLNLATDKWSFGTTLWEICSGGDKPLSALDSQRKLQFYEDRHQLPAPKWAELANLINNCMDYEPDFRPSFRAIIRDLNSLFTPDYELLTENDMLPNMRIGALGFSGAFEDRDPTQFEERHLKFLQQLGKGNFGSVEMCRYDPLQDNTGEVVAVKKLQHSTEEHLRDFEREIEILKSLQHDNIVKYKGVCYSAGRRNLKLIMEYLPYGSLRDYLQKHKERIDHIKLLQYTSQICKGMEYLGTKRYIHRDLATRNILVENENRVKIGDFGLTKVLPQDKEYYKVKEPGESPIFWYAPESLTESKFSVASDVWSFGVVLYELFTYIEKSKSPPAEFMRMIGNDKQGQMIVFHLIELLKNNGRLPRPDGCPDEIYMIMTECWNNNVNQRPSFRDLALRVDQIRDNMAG

SMILES: O=C(Nc1nc2cccc([C@H]3CCC4(CCN(C(=O)[C@@H]5CC5(F)F)CC4)C3)n2n1)C1CC1 (single isomer, unassigned) [Compound 6-7]
IC50 [1]: 829 nM
IC50 [2]: 9390 nM
IC50 [3]: 63 nM
IC50 [4]: 998 nM

IC50 [1]: 371 nM
IC50 [2]: > 10000 nM
IC50 [3]: 65 nM
SMILES: N#CCCN1CC2(CCC(c3cccc4nc(NC(=O)C5CC5)nn34)CC2)C1 [Compound 1-17]

SMILES: O=C(Nc1nc2cccc(C3CCC4(CC3)CN(C(=O)[C@@H]3CC3(F)F)C4)n2n1)C1CC1 [Compound 1-13]
Effect on treating allergic dermatitis (in words) ([5]; 30 mg/kg p.o. qd, DNCB mice): good disease treatment effect; also recorded: significant effect
Thickness of the right ear after drug intervention (in words) ([5]; 30 mg/kg p.o., vs DNCB group): significantly decreased
Thickness of the right ear [5, 7]: 0.232 ± 0.004
Skin score [5, 8]: 0.5 ± 0.5
Skin score [5, 9]: 3.9 ± 1.6
Skin score [5, 10]: 3.7 ± 0.6
Skin score [5, 11]: 5.0 ± 1.0
Effect on skin score compared with positive drug Alonson [5, 12]: better effect
Skin score compared with DNCB group (in words) [5, 12]: significantly decreased
Skin score [5, 13]: 1.5 ± 0.5
Skin score compared with DNCB group (in words) ([5]; day 27 of administration, 30 mg/kg p.o.): significant reduction

IC50 [1]: 404 nM
IC50 [2]: > 10000 nM
IC50 [3]: 176 nM
SMILES: O=C(Nc1nc2cccc([C@@H]3CCC4(C3)CN(C(=O)[C@@H]3CC3(F)F)C4)n2n1)C1CC1 [Compound 7-8]

Effect on the weight of mice (in words) ([5]; 30 mg/kg p.o. qd, 28 days): no significant effect
Weight of mice ([5]; day 1, 30 mg/kg p.o. qd from day 4, Mean±SEM): 19.45 ± 0.59
Weight of mice ([5]; day 4, 30 mg/kg p.o. qd, Mean±SEM): 20.15 ± 0.46
Weight of mice ([5]; day 10, 30 mg/kg p.o. qd, Mean±SEM): 20.21 ± 0.62
Weight of mice ([5]; day 13, 30 mg/kg p.o. qd, Mean±SEM): 20.24 ± 0.41
Weight of mice ([5]; day 16, 30 mg/kg p.o. qd, Mean±SEM): 20.63 ± 0.43
Weight of mice ([5]; day 19, 30 mg/kg p.o. qd, Mean±SEM): 22.50 ± 0.40
Weight of mice ([5]; day 22, 30 mg/kg p.o. qd, Mean±SEM): 23.97 ± 0.42
Weight of mice ([5]; day 25, 30 mg/kg p.o. qd, Mean±SEM): 22.45 ± 0.36
Weight of mice ([5]; day 28, 30 mg/kg p.o. qd, Mean±SEM): 22.66 ± 0.34
SMILES: N#CC1(C(=O)N2CC3(CCC(c4cccc5nc(NC(=O)C6CC6)nn45)CC3)C2)CC1 [Compound 1-11]
Colon length ([6]; after the experiment): 2.84 ± 0.21
Weight of mice ([6]; day 1): 22.63 ± 0.29
DAI score ([6]; day 2): 0.30 ± 0.15
Weight of mice ([6]; day 2): 22.64 ± 0.28
Weight of mice ([6]; day 3): 22.20 ± 0.28
DAI score ([6]; day 4): 1.50 ± 0.34
Weight of mice ([6]; day 4): 21.75 ± 0.25
Weight of mice ([6]; day 5): 20.90 ± 0.30
DAI score ([6]; day 6): 3.50 ± 0.27
Weight of mice ([6]; day 6): 20.33 ± 0.28
Weight of mice ([6]; day 7): 20.64 ± 0.38
DAI score ([6]; day 8): 4.20 ± 0.79
Weight of mice ([6]; day 8): 20.44 ± 0.58
Weight of mice ([6]; day 9): 19.49 ± 0.77
Weight of mice ([6]; day 10): 19.00 ± 0.87
Weight of mice ([6]; day 11): 19.73 ± 0.77
DAI score ([6]; day 12): 3.11 ± 0.49
Weight of mice ([6]; day 12): 20.09 ± 0.90
Weight of mice ([6]; day 13): 20.88 ± 0.86
DAI score ([6]; day 14): 3.22 ± 0.79
Weight of mice ([6]; day 14): 20.67 ± 0.84
Weight of mice ([6]; day 15): 20.82 ± 0.91
DAI score ([6]; day 16): 4.44 ± 0.67
Weight of mice ([6]; day 16): 20.41 ± 1.05
Weight of mice ([6]; day 17): 19.85 ± 1.05
DAI score ([6]; day 18): 5.89 ± 0.51
Weight of mice ([6]; day 18): 18.84 ± 1.06
IgE concentration in serum [5, 7]: 7.46 ± 1.34
Thickness of the right ear [5, 7]: 0.283 ± 0.006
Skin score [5, 8]: 0.9 ± 0.3
Skin score [5, 9]: 3.6 ± 1.1
Skin score [5, 10]: 4.4 ± 0.8
Skin score [5, 11]: 5.4 ± 0.7
Skin score [5, 13]: 2.9 ± 1.2
